# Measured values: US20170058288A1, “OSNF-YA7 GENE FOR INCREASING DROUGHT STRESS RESISTANCE OF PLANT AND USE THEREOF” (SNU R&DB FOUNDATION, priority 2014, published 2017)
# Tests used:
# [1] = test system: OsNF-YA7; test: OsNF-YA7 gene expression in response to ABA treatment (qRT-PCR); assay type: in vivo, rice (Oryza sativa); settings: short-term treatment (24 hours) with 10 and 100 μM ABA, NT rice plant, compared to untreated control group
# Description: (§1) To analyze expression patterns of OsNF-YA4 and OsNF-YA7 gene in response to abiotic stress, non-transgenic rice plants (NT plants; breed—“Nakdong”) were grown in soil for 4 week in green house. The whole plant of a 4-week old non-transgenic plant was air-dried for 3 hrs for drought stress treatment. For the treatment of salt stress, whole plants were transferred to a solution containing 200 mM of NaCl and kept for 24 hours. For the treatment of low temperature stress, whole plants were transferred to a 4° C. low temperature chamber and kept for 24 hrs. For the analysis of OsNF-YA4 and OsNF-YA7 gene expression pattern in response to ABA, NT plant were grown in MS media for 2 week in growth chamber. For the short-term treatment with ABA, the whole plants were transferred to a solution containing 10 or 100 μM ABA and treated with the solution for 24 hours. For the long-term treatment with ABA, NT plant seeds were planted and grown on MS media supplemented with 0, 0.5, 1 or 3 μM of ABA for 2 weeks.
# (§2) Leaf and root tissues of a plant which has been treated with either abiotic stress or absicic acid were collected and frozen. […] To analyze the gene expression level, quantitative PCR was carried out by using Mx3000p real-time PCR machine and Platinum® SYBR® Green qPCR SuperMix-UDG system (Invitrogen, USA). […]
# [2] = test system: OsNF-YA4; test: OsNF-YA4 gene expression in response to ABA treatment (qRT-PCR); assay type: in vivo, rice (Oryza sativa); settings: short-term treatment (24 hours) with 10 and 100 μM ABA, NT rice plant, compared to untreated control group
# Description: as §1, §2
structure (smiles),measurement,setting,value
"CC1=CC(=O)CC(C)(C)[C@@]1(O)/C=C/C(C)=C\C(=O)O [ABA, Abscisic acid]",decrease in OsNF-YA7 expression level,[1],approximately 30%
same,increase in OsNF-YA4 expression level,[2],4 fold
